Key:
PIK3CA(E545K) = target: T1, PIK3CA(E545K) (Homo sapiens, UniProt P42336, E545K); experiment: kinome scan; format: binding; conditions: 10 µM
T1 construct: purchased DiscoverX (KINOMEscan)

CAMK4 = target: T2, CAMK4 (Homo sapiens, UniProt Q16566); experiment: kinome scan; format: binding; conditions: 10 µM
T2 construct: purchased DiscoverX (KINOMEscan)

ERK = ERK phosphorylation by Western blotting; format: cell-based, mouse; conditions: PSC, data not shown
Description: It is noteworthy that, in parallel, a regulation of the ERK pathway was not confirmed at the protein level, assessed by the study of ERK phosphorylation by Western blotting (data not shown). The effects of the drug on proliferation or differentiation was next investigated in quantitative assays. The rate of cell proliferation of the PSC, assessed during five days by quantification of intracellular ATP, was not affected by the drug (Figure 2A). The CGR8 PSC line was stably transduced with a dual promoter/reporter gene construct containing a ubiquitous promoter (EF1αS) controlling the expression of Renilla Luciferase (RLuc) and also an early neural-specific promoter (Tα1), controlling the expression of Firefly Luciferase (FLuc). Then, neural differentiation was quantified by the normalized ratio between FLuc and RLuc ([Suter et al., 2009]). […] After 72 h, the cells were lysed for RLuc and FLuc luminescence measurement in the presence of their substrates, each signal being normalized with the signal obtained with the vehicle alone (DMSO).

SRC = target: T3, SRC (Homo sapiens, UniProt P12931); experiment: kinome scan; format: binding; conditions: 10 µM
T3 construct: purchased DiscoverX (KINOMEscan)
T3 sequence (P12931 whole entry): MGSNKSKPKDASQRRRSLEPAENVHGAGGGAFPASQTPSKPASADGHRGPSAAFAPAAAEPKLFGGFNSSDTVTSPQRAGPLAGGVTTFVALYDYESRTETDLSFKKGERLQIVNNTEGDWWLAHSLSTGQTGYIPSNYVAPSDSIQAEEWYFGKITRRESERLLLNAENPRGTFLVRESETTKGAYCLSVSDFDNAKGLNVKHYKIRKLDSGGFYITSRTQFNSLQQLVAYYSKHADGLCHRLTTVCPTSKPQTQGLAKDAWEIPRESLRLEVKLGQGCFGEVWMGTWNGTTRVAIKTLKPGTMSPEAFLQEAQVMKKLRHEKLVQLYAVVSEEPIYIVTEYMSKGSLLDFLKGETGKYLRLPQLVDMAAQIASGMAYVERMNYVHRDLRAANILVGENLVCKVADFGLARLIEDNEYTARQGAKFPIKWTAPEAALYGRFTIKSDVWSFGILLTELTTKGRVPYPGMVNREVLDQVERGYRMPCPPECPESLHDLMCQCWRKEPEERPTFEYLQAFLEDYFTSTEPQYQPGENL

JNK1 = target: T4, JNK1 (Homo sapiens, UniProt P45983); experiment: kinome scan; format: binding; conditions: 10 µM
T4 construct: purchased DiscoverX (KINOMEscan)

CDK7 = target: T5, CDK7 (Homo sapiens, UniProt P50613); experiment: kinome scan; format: binding; conditions: 10 µM
T5 construct: purchased DiscoverX (KINOMEscan)

PAK6 = target: T6, PAK6 (Homo sapiens, UniProt Q9NQU5); experiment: kinome scan; format: binding; conditions: 10 µM
T6 construct: purchased DiscoverX (KINOMEscan)

MUSK = target: T7, MUSK (Homo sapiens, UniProt O15146); experiment: kinome scan; format: binding; conditions: 10 µM
T7 construct: purchased DiscoverX (KINOMEscan)

MEK4 = target: T8, MEK4 (Homo sapiens, UniProt P45985); experiment: kinome scan; format: binding; conditions: 10 µM
T8 construct: purchased DiscoverX (KINOMEscan)

GSK3B = target: T9, GSK3B (Homo sapiens, UniProt P49841); experiment: kinome scan; format: binding; conditions: 10 µM
T9 construct: purchased DiscoverX (KINOMEscan)

IKK-alpha = target: T10, IKK-alpha (Homo sapiens, UniProt O15111); experiment: kinome scan; format: binding; conditions: 10 µM
T10 construct: purchased DiscoverX (KINOMEscan)

TRKB = target: T11, TRKB (Homo sapiens, UniProt Q16620); experiment: kinome scan; format: binding; conditions: 10 µM
T11 construct: purchased DiscoverX (KINOMEscan)

ITK = target: T12, ITK (Homo sapiens, UniProt Q08881); experiment: kinome scan; format: binding; conditions: 10 µM
T12 construct: purchased DiscoverX (KINOMEscan)

RET(V804L) = target: T13, RET(V804L) (Homo sapiens, UniProt P07949, V804L); experiment: kinome scan; format: binding; conditions: 10 µM
T13 construct: purchased DiscoverX (KINOMEscan)
T13 sequence (P07949 29-1114 V804L): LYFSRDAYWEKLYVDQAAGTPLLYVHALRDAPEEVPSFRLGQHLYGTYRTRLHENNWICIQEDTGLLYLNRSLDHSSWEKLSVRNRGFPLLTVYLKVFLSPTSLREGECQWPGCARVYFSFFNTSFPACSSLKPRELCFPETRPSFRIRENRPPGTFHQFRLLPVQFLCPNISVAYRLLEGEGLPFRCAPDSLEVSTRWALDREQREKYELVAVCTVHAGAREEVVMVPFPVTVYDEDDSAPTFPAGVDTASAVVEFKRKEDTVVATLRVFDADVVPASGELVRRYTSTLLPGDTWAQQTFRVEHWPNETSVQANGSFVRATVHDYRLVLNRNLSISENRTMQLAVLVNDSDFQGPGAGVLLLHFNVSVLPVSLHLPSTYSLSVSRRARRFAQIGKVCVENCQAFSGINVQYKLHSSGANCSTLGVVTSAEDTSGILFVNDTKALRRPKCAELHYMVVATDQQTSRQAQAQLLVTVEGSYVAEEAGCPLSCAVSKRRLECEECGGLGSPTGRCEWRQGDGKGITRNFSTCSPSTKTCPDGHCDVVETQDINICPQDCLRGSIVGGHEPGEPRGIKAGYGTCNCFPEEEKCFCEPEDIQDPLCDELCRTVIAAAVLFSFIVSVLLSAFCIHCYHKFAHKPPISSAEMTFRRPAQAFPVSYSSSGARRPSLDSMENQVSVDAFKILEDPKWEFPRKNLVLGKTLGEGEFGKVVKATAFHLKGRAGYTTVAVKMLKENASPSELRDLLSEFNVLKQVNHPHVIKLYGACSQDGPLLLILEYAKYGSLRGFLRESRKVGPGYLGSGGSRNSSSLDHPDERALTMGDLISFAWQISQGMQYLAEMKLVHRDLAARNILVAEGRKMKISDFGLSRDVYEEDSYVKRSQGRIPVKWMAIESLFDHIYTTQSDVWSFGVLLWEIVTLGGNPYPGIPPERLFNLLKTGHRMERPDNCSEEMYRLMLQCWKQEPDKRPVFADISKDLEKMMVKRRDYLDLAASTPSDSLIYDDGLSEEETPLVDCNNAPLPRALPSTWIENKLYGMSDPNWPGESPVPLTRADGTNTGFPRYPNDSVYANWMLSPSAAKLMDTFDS

MST1 = target: T14, MST1 (Homo sapiens, UniProt Q13043); experiment: kinome scan; format: binding; conditions: 10 µM
T14 construct: purchased DiscoverX (KINOMEscan)

CDC2L2 = target: T15, CDC2L2 (Homo sapiens, UniProt Q9UQ88); experiment: kinome scan; format: binding; conditions: 10 µM
T15 construct: purchased DiscoverX (KINOMEscan)

MYO3A = target: T16, MYO3A (Homo sapiens, UniProt Q8NEV4); experiment: kinome scan; format: binding; conditions: 10 µM
T16 construct: purchased DiscoverX (KINOMEscan)
T16 sequence (Q8NEV4 whole entry): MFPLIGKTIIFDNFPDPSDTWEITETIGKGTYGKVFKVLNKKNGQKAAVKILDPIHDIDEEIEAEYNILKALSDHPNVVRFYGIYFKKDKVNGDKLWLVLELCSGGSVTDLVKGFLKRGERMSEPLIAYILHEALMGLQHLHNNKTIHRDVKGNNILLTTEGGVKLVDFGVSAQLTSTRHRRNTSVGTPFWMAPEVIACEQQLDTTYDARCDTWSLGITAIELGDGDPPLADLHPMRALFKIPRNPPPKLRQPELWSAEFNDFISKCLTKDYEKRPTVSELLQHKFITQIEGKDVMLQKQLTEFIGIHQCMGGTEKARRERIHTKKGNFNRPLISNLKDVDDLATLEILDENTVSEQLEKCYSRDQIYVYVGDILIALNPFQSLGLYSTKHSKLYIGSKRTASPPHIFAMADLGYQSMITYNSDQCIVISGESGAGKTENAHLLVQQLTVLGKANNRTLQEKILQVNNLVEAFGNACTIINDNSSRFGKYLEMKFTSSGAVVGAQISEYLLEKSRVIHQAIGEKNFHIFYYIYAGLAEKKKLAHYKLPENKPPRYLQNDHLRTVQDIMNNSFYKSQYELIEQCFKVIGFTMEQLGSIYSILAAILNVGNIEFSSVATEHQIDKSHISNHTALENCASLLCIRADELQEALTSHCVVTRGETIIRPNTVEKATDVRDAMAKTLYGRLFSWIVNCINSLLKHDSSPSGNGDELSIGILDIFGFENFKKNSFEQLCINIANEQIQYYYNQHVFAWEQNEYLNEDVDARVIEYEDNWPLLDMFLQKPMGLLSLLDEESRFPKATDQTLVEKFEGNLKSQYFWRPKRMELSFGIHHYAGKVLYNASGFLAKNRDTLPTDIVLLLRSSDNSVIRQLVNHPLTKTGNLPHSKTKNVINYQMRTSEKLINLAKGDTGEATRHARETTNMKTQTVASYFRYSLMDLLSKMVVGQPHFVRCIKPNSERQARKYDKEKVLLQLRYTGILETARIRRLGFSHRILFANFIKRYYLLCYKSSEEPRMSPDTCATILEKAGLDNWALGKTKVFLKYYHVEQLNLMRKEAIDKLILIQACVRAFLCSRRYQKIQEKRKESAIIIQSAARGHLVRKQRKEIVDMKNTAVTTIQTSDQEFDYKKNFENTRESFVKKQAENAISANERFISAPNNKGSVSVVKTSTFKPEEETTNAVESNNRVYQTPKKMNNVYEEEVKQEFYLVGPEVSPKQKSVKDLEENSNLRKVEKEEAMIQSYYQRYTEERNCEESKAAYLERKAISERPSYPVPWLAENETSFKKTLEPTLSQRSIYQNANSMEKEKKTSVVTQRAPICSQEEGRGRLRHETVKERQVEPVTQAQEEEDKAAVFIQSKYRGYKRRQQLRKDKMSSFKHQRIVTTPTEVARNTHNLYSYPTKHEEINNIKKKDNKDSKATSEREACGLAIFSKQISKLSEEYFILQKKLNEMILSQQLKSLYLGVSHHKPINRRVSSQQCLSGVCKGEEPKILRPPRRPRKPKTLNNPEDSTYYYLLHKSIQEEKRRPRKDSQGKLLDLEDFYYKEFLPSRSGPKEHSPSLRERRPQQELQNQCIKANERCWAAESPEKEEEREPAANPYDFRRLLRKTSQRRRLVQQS

[1] = tested on: Hemoglobin beta chain splicing at IVS2 705 locus; parameters: method as in CHEMBL1614204; conditions: reported activity, data mining; ref CHEMBL1614204; cited from earlier work
[2] = target: T17, JAK1(JH1domain-catalytic) (Homo sapiens, UniProt P23458); experiment: kinome scan; format: binding; conditions: 10 µM
T17 construct: JAK1(JH1domain-catalytic); purchased DiscoverX (KINOMEscan)

[3] = tested on: Cytochrome P450 3A4 isoform 1; parameters: method as in PubChem Bioassay ID 884; conditions: reported activity, data mining; ref PubChem Bioassay ID 884; cited from earlier work
CDKL3 = target: T18, CDKL3 (Homo sapiens, UniProt Q8IVW4); experiment: kinome scan; format: binding; conditions: 10 µM
T18 construct: purchased DiscoverX (KINOMEscan)

NEK6 = target: T19, NEK6 (Homo sapiens, UniProt Q9HC98); experiment: kinome scan; format: binding; conditions: 10 µM
T19 construct: purchased DiscoverX (KINOMEscan)

FLT3(D835Y) = target: T20, FLT3(D835Y) (Homo sapiens, UniProt P36888, D835Y); experiment: kinome scan; format: binding; conditions: 10 µM
T20 construct: purchased DiscoverX (KINOMEscan)

NIM1 = target: T21, NIM1 (Homo sapiens, UniProt Q8IY84); experiment: kinome scan; format: binding; conditions: 10 µM
T21 construct: purchased DiscoverX (KINOMEscan)
T21 sequence (Q8IY84 whole entry): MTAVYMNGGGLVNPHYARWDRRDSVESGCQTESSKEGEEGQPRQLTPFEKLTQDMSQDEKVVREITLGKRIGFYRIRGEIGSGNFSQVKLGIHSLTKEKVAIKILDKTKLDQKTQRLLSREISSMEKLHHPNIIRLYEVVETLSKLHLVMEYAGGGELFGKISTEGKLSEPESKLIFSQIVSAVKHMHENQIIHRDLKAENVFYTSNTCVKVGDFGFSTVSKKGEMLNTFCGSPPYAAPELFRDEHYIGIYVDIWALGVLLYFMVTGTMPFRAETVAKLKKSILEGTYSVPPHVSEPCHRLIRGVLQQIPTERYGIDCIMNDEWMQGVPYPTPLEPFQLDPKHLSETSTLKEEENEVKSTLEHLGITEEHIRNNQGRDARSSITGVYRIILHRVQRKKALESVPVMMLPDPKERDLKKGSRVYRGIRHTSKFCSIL

DDR2 = target: T22, DDR2 (Homo sapiens, UniProt Q16832); experiment: kinome scan; format: binding; conditions: 10 µM
T22 construct: purchased DiscoverX (KINOMEscan)

p38-delta = target: T23, p38-delta (Homo sapiens, UniProt O15264); experiment: kinome scan; format: binding; conditions: 10 µM
T23 construct: purchased DiscoverX (KINOMEscan)

HCK = target: T24, HCK (Homo sapiens, UniProt P08631); experiment: kinome scan; format: binding; conditions: 10 µM
T24 construct: purchased DiscoverX (KINOMEscan)

BRK = target: T25, BRK (Homo sapiens, UniProt Q13882); experiment: kinome scan; format: binding; conditions: 10 µM
T25 construct: purchased DiscoverX (KINOMEscan)

SRPK3 = target: T26, SRPK3 (Homo sapiens, UniProt Q9UPE1); experiment: kinome scan; format: binding; conditions: 10 µM
T26 construct: purchased DiscoverX (KINOMEscan)
T26 sequence (Q9UPE1 whole entry): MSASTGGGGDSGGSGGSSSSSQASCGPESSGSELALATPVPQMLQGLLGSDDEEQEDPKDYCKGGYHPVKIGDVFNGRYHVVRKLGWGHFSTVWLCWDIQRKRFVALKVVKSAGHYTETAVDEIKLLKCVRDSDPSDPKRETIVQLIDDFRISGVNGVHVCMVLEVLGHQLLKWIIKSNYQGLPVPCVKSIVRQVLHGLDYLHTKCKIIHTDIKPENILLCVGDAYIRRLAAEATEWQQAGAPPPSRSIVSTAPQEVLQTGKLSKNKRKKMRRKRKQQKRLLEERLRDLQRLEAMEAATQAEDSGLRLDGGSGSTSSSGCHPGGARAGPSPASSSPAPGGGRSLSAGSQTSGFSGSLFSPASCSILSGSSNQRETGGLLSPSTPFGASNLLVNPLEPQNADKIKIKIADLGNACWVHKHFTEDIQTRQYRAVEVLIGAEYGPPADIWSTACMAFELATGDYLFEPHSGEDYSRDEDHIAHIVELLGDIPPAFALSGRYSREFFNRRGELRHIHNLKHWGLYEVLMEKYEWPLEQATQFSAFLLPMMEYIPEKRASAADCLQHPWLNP

BRSK2 = target: T27, BRSK2 (Homo sapiens, UniProt Q8IWQ3); experiment: kinome scan; format: binding; conditions: 10 µM
T27 construct: purchased DiscoverX (KINOMEscan)

PKNB(M.tuberculosis) = target: T28, PKNB(M.tuberculosis) (Mycobacterium tuberculosis, UniProt P9WI81); experiment: kinome scan; format: binding; conditions: 10 µM
T28 construct: purchased DiscoverX (KINOMEscan)

MAP3K4 = target: T29, MAP3K4 (Homo sapiens, UniProt Q9Y6R4); experiment: kinome scan; format: binding; conditions: 10 µM
T29 construct: purchased DiscoverX (KINOMEscan)

PAK3 = target: T30, PAK3 (Homo sapiens, UniProt O75914); experiment: kinome scan; format: binding; conditions: 10 µM
T30 construct: purchased DiscoverX (KINOMEscan)

PCTK1 = target: T31, PCTK1 (Homo sapiens, UniProt Q00536); experiment: kinome scan; format: binding; conditions: 10 µM
T31 construct: purchased DiscoverX (KINOMEscan)

HIPK2 = target: T32, HIPK2 (Homo sapiens, UniProt Q9H2X6); experiment: kinome scan; format: binding; conditions: 10 µM
T32 construct: purchased DiscoverX (KINOMEscan)

PRKCI = target: T33, PRKCI (Homo sapiens, UniProt P41743); experiment: kinome scan; format: binding; conditions: 10 µM
T33 construct: purchased DiscoverX (KINOMEscan)
T33 sequence (P41743 whole entry): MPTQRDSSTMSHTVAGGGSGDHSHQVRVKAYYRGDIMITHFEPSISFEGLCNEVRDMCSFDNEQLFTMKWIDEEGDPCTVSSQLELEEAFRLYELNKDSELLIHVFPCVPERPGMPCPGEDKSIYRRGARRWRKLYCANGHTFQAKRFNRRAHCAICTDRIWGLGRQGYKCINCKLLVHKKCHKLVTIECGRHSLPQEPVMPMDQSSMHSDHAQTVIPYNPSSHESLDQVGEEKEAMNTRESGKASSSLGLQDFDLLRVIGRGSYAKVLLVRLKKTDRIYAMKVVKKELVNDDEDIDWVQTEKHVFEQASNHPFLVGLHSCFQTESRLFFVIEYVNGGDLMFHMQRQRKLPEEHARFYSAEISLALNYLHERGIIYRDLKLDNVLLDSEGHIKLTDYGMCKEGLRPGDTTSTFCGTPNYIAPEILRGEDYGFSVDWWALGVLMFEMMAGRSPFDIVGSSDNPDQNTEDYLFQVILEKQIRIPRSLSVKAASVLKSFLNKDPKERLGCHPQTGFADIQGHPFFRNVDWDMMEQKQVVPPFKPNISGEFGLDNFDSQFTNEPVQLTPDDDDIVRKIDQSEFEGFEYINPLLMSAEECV

MAP4K5 = target: T34, MAP4K5 (Homo sapiens, UniProt Q9Y4K4); experiment: kinome scan; format: binding; conditions: 10 µM
T34 construct: purchased DiscoverX (KINOMEscan)

Question: For `Nc1ccc(N=Nc2ccccc2)c(N)n1` [phenazopyridine, 2,6-diamino-3-(phenylazo)pyridine], which kinase inhibition (PIK3CA(E545K)) is on record?
Answer: 88

Question: What about the kinase inhibition (CAMK4) of the same compound?
Answer: 67

Question: What about the “regulation of the ERK pathway (ERK phosphorylation)” value (ERK) of the same compound?
Answer: not confirmed

Question: What about the kinase inhibition (SRC) of the same compound?
Answer: 100

Question: What about the kinase inhibition (JNK1) of the same compound?
Answer: 78

Question: And the kinase inhibition (CDK7)?
Answer: 50

Question: What about the kinase inhibition (PAK6) of the same compound?
Answer: 100

Question: And the kinase inhibition (MUSK)?
Answer: 91

Question: And the kinase inhibition (MEK4)?
Answer: 48

Question: And the kinase inhibition (GSK3B)?
Answer: 100

Question: What about the kinase inhibition (IKK-alpha) of the same compound?
Answer: 64

Question: And the kinase inhibition (TRKB)?
Answer: 81

Question: And the kinase inhibition (ITK)?
Answer: 97

Question: What about the kinase inhibition (RET(V804L)) of the same compound?
Answer: 100

Question: And the kinase inhibition (MST1)?
Answer: 88

Question: And the kinase inhibition (CDC2L2)?
Answer: 84

Question: And the kinase inhibition (MYO3A)?
Answer: 100

Question: What about the Concentration [1] of the same compound?
Answer: 20 µM

Question: What about the kinase inhibition [2] of the same compound?
Answer: 97

Question: And the Concentration [3]?
Answer: 0.1 µM

Question: And the kinase inhibition (CDKL3)?
Answer: 74

Question: And the kinase inhibition (NEK6)?
Answer: 100

Question: And the “percent of control (remaining binding)” value (FLT3(D835Y))?
Answer: 42

Question: And the kinase inhibition (NIM1)?
Answer: 100

Question: What about the kinase inhibition (DDR2) of the same compound?
Answer: 100

Question: What about the kinase inhibition (p38-delta) of the same compound?
Answer: 89

Question: And the kinase inhibition (HCK)?
Answer: 100

Question: And the kinase inhibition (BRK)?
Answer: 100

Question: And the kinase inhibition (SRPK3)?
Answer: 94

Question: What about the kinase inhibition (BRSK2) of the same compound?
Answer: 90

Question: What about the “remaining binding (% of control)” value (PKNB(M.tuberculosis)) of the same compound?
Answer: 96

Question: And the kinase inhibition (MAP3K4)?
Answer: 100

Question: And the kinase inhibition (PAK3)?
Answer: 99

Question: And the kinase inhibition (PCTK1)?
Answer: 98

Question: What about the kinase inhibition (HIPK2) of the same compound?
Answer: 89

Question: And the kinase inhibition (PRKCI)?
Answer: 100

Question: What about the kinase inhibition (MAP4K5) of the same compound?
Answer: 100
